What follows are molecules tested against Mcl-1 protein (UniProtKB Q07820) (Homo sapiens (Human), UniProt Q07820) (assay: Inhibition of Mcl-1 by the fluorescence polarisation assay (Example A, Method A)). Conditions: fluorescence polarization assay.
Format: binding
Outline: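 Protein (5 nM) and fluorescein-tagged peptide tracer (1 nM) incubated with 11-point compound series for 2 h at room temperature in HEPES/NaCl/Tween 20 buffer, pH 7.4, 5% DMSO. Displacement read as decrease in polarisation; IC50 fitted by 4-parameter logistic, converted to Ki (cKi or eKi).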

Sequence of Mcl-1 protein (Q07820 whole entry): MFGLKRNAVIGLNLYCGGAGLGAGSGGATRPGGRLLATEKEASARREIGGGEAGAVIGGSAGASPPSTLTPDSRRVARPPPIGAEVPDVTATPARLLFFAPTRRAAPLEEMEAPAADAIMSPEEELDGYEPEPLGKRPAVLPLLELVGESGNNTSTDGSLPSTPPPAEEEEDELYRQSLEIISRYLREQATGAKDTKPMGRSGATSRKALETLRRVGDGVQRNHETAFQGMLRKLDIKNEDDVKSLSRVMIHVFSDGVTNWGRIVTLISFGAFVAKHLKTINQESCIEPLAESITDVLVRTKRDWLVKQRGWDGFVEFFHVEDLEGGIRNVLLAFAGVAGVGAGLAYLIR

Row | SMILES | Ki
1 | O=c1ccn(CCCC2Cc3ccccc3[C@]23CC[C@@](Nc2cccc(Cl)c2)(C(=O)O)CC3)cc1 (stereo partly drawn) [Example 167, (1r,4r)-4-(3-chloroanilino)-2′-[3-(4-oxopyridin-1 (4H)-yl)propyl]-2′,3′-dihydrospiro[cyclohexane-1,1′-indene]-4-carboxylic acid] | 32700 nM
2 | Cc1ccc(C2Cc3ccccc3C23CCC(Nc2cccc(Br)c2)(C(=O)O)CC3)o1 (stereo not drawn) [Example 239, 4-(3-bromoanilino)-2′-(5-methylfuran-2-yl)-2′,3′-dihydrospiro[cyclohexane-1,1′-indene]-4-carboxylic acid] | 301 nM
3 | COc1ccc(Cl)c(C2=Cc3ccccc3[C@]23CC[C@@](Nc2cccc(Cl)c2)(C(=O)O)CC3)c1 [Example 246, (1s,4s)-4-(3-chloroanilino)-2′-(2-chloro-5-methoxyphenyl)spiro[cyclohexane-1,1′-indene]-4-carboxylic acid] | 4200 nM
4 | COc1cccc(C2=Cc3ccccc3[C@]23CC[C@@](Nc2cccc(Cl)c2)(C(=O)O)CC3)c1Cl [Example 267, (1s,4s)-4-(3-chloroanilino)-2′-(2-chloro-3-methoxyphenyl)spiro[cyclohexane-1,1′-indene]-4-carboxylic acid] | 259 nM
5 | O=C(O)[C@]1(Nc2cccc(Br)c2)CC[C@]2(CC1)C(I)=Cc1ccccc12 [Example 77, (1s,4s)-4-(3-bromoanilino)-2′-iodospiro[cyclohexane-1,1′-indene]-4-carboxylic acid] | 227 nM
6 | Cc1cccc(C)c1C1=Cc2ccccc2[C@]12CC[C@@](Nc1cccc(Cl)c1)(C(=O)O)CC2 [Example 249, (1s,4s)-4-(3-chloroanilino)-2′-(2,6-dimethylphenyl)spiro[cyclohexane-1,1′-indene]-4-carboxylic acid] | 19000 nM
7 | O=C(O)[C@]1(Nc2cccc(Cl)c2)CC[C@@]2(CC1)c1ccccc1CC2c1ccc(Cl)cc1 (single isomer, unassigned) [Example 319, (1r,4r)-4-(3-chloroanilino)-2′-(4-chlorophenyl)-2′,3′-dihydrospiro[cyclohexane-1,1′-indene]-4-carboxylic acid] | 906 nM
8 | O=C(O)[C@]1(Nc2cccc(Cl)c2)CC[C@@]2(CC1)c1ccccc1CC2c1coc2ccccc12 (single isomer, unassigned) [Example 284, (1r,4r)-2′-(1-benzofuran-3-yl)-4-(3-chloroanilino)-2′,3′-dihydrospiro[cyclohexane-1,1′-indene]-4-carboxylic acid] | 1220 nM
9 | COc1ccc(CCCC2Cc3ccccc3[C@]23CC[C@@](Nc2cccc(Cl)c2)(C(=O)O)CC3)cc1 (stereo partly drawn) [Example 161, (1r,4r)-4-(3-chloroanilino)-2′-[3-(4-methoxyphenyl)propyl]-2′,3′-dihydrospiro[cyclohexane-1,1′-indene]-4-carboxylic acid] | 447 nM
10 | CN1c2ccc(I)cc2[C@]2(CC[C@](Nc3cccc(Br)c3)(C(=O)O)CC2)C1=O [Example 5, (1r,4r)-4-(3-bromoanilino)-5′-iodo-1′-methyl-2′-oxo-1′,2′-dihydrospiro[cyclohexane-1,3′-indole]-4-carboxylic acid] | 22000 nM
11 | COc1ccc(Cl)c(C2Cc3ccccc3[C@]23CC[C@@](Nc2ccccc2)(C(=O)O)CC3)c1 (single isomer, unassigned) [Example 260, (1r,4r)-4-anilino-2′-(2-chloro-5-methoxyphenyl)-2′,3′-dihydrospiro[cyclohexane-1,1′-indene]-4-carboxylic acid] | 90100 nM
12 | CCC1=C(C)[C@]2(CC[C@](Nc3cccc(Cl)c3)(C(=O)O)CC2)c2ccccc21 [Example 205, (1r,4r)-4-(3-chloroanilino)-3′-ethyl-2′-methylspiro[cyclohexane-1,1′-indene]-4-carboxylic acid] | 1710 nM
13 | Cc1cnccc1CCCOC1Cc2ccccc2[C@]12CC[C@@](Nc1cccc(Cl)c1)(C(=O)O)CC2 (stereo partly drawn) [Example 401, (1s,4s)-4-(3-chloroanilino)-2′-[3-(3-methylpyridin-4-yl)propoxy]-2′,3′-dihydrospiro[cyclohexane-1,1′-indene]-4-carboxylic acid] | 320 nM
14 | Cc1nc2c(c(OCCCC3Cc4ccccc4[C@]34CC[C@@](Nc3cccc(Cl)c3)(C(=O)O)CC4)n1)C(C)CC2 (stereo partly drawn) [Example 468, (1r,4r)-4-(3-chloroanilino)-2′-{3-[(2,5-dimethyl-6,7-dihydro-5H-cyclopenta[d]pyrimidin-4-yl)oxy]propyl}-2′,3′-dihydrospiro[cyclohexane-1,1′-indene]-4-carboxylic acid] | 234 nM
15 | O=C(O)[C@]1(Nc2cccc(Cl)c2)CC[C@@]2(CC1)c1ccccc1CC2[C@H]1C[C@@H]1COc1ccccc1 (relative stereo) [Example 110, (1r,4r)-4-(3-chloroanilino)-2′-[(1R*,2S*)-2-(phenoxymethyl)cyclopropyl]-2′,3′-dihydrospiro[cyclohexane-1,1′-indene]-4-carboxylic acid] | 8450 nM
16 | COc1ccc2c(c1)[C@]1(CC[C@](Nc3cccc(Br)c3)(C(=O)O)CC1)C(C)(C)C2 [Example 128, (1s,4s)-4-(3-bromoanilino)-6′-methoxy-2′,2′-dimethyl-2′,3′-dihydrospiro[cyclohexane-1,1′-indene]-4-carboxylic acid] | 46200 nM
17 | O=C(O)[C@]1(Nc2cccc(Cl)c2)CC[C@@]2(CC1)c1ccccc1CC2c1ccc(OCc2ccncc2)cc1 (single isomer, unassigned) [Example 369, (1r,4r)-4-(3-chloroanilino)-2′-{4-[(pyridin-4-yl)methoxy]phenyl}-2′,3′-dihydrospiro[cyclohexane-1,1′-indene]-4-carboxylic acid] | 1910 nM
18 | CN1c2ccc(/C=C/c3ccccc3)cc2[C@]2(CC[C@](Nc3cccc(Br)c3)(C(=O)O)CC2)C1=O [Example 9, (1r,4r)-4-(3-bromoanilino)-1′-methyl-2′-oxo-5′-[(E)-2-phenylethenyl]-1′,2′-dihydrospiro[cyclohexane-1,3′-indole]-4-carboxylic acid] | 4820 nM
19 | O=C(O)[C@]1(Nc2cccc(Cl)c2)CC[C@]2(CC1)C(COCCc1ccccc1F)=Cc1ccccc12 [Example 410, (1s,4s)-4-(3-chloroanilino)-2′-{[2-(2-fluorophenyl)ethoxy]methyl}spiro[cyclohexane-1,1′-indene]-4-carboxylic acid] | 550 nM
20 | O=C(O)[C@]1(Nc2cccc(Cl)c2)CC[C@@]2(CC1)c1ccccc1CC2CCCOC1CCOCC1 (stereo partly drawn) [Example 467, (1r,4r)-4-(3-chloroanilino)-2′-{3-[(oxan-4-yl)oxy]propyl}-2′,3′-dihydrospiro[cyclohexane-1,1′-indene]-4-carboxylic acid] | 746 nM
21 | O=C(O)[C@]1(Nc2cccc(Cl)c2)CC[C@]2(CC1)C(c1ccc(Oc3ccncc3)cc1)=Cc1ccccc12 [Example 342, (1s,4s)-4-(3-chloroanilino)-2′-{4-[(pyridin-4-yl)oxy]phenyl}spiro[cyclohexane-1,1′-indene]-4-carboxylic acid] | 785 nM
22 | COc1ccc(CCOCC2=Cc3ccccc3[C@]23CC[C@@](Nc2cccc(Cl)c2)(C(=O)O)CC3)cc1 [Example 421, (1s,4s)-4-(3-chloroanilino)-2′-{[2-(4-methoxyphenyl)ethoxy]methyl}spiro[cyclohexane-1,1′-indene]-4-carboxylic acid] | 793 nM
23 | Cn1cc(C2Cc3ccccc3[C@]23CC[C@@](Nc2cccc(Br)c2)(C(=O)O)CC3)cn1 (stereo partly drawn) [Example 212, (1r,4r)-4-(3-bromoanilino)-2′-(1-methyl-1H-pyrazol-4-yl)-2′,3′-dihydrospiro[cyclohexane-1,1′-indene]-4-carboxylic acid] | 9470 nM
24 | O=C(O)[C@]1(Nc2cccc(Cl)c2)CC[C@]2(CC1)C(c1cccc(Oc3ccncc3)c1)=Cc1ccccc12 [Example 377, (1s,4s)-4-(3-chloroanilino)-2′-{3-[(pyridin-4-yl)oxy]phenyl}spiro[cyclohexane-1,1′-indene]-4-carboxylic acid] | 74.3 nM
25 | COc1cncnc1OCCCC1Cc2ccccc2[C@]12CC[C@@](Nc1cccc(Cl)c1)(C(=O)O)CC2 (stereo partly drawn) [Example 438, (1r,4r)-4-(3-chloroanilino)-2′-{3-[(5-methoxypyrimidin-4-yl)oxy]propyl}-2′,3′-dihydrospiro[cyclohexane-1,1′-indene]-4-carboxylic acid] | 202 nM
26 | CC(C)C(COc1ccncc1)CC1Cc2ccccc2[C@]12CC[C@@](Nc1cccc(Cl)c1)(C(=O)O)CC2 (single isomer, unassigned) [Example 534, (1r,4r)-4-(3-chloroanilino)-2′-(3-methyl-2-{[(pyridin-4-yl)oxy]methyl}butyl)-2′,3′-dihydrospiro[cyclohexane-1,1′-indene]-4-carboxylic acid] | 1520 nM
27 | COc1cc(Cl)cc(C2Cc3ccccc3[C@]23CC[C@@](Nc2cccc(Cl)c2)(C(=O)O)CC3)c1 (single isomer, unassigned) [Example 347, (1r,4r)-4-(3-chloroanilino)-2′-(3-chloro-5-methoxyphenyl)-2′,3′-dihydrospiro[cyclohexane-1,1′-indene]-4-carboxylic acid] | 1130 nM
28 | COc1ccc(C2=Cc3ccccc3[C@]23CC[C@](Nc2cccc(Cl)c2)(C(=O)O)CC3)c(C)c1 [Example 228, (1r,4r)-4-(3-chloroanilino)-2′-(4-methoxy-2-methylphenyl)spiro[cyclohexane-1,1′-indene]-4-carboxylic acid] | 14700 nM
29 | O=C(O)[C@]1(Nc2cccc(Br)c2)CC[C@]2(CC1)c1ccccc1CC2c1ccccc1 (single isomer, unassigned) [Example 210, (1s,4s)-4-(3-bromoanilino)-2′-phenyl-2′,3′-dihydrospiro[cyclohexane-1,1′-indene]-4-carboxylic acid] | 89000 nM
30 | O=C(O)C1(Nc2cccc(Br)c2)CCC2(CC1)c1ccccc1CC2c1nccs1 (single isomer, unassigned) [Example 223, 4-(3-bromoanilino)-2′-(1,3-thiazol-2-yl)-2′,3′-dihydrospiro[cyclohexane-1,1′-indene]-4-carboxylic acid] | 14300 nM
